In patent US20240365781A1, “SYNERGISTICALLY EFFECTIVE HERBICIDE COMPOSITION COMPRISING PELARGONIC ACID AND FLAZASULFURON” (Belchim Crop Protection NV, priority 2017, published 2024):

Key:
Assay in all cases: post-emergence test, field trial (Examples 1-5)
Type in all cases: in vivo
[1] = test system: Veronica persica; conditions: FT, pelargonic acid 5440 g/ha, flazasulfuron 50 g/ha, 8 L/ha
Description: (§1) The expected activity of a given combination of two or three herbicides can be calculated as follows according to a calculation method by Colby (cf. COLBY, S. R.: “Calculating synergistic and antagonistic responses of herbicide combinations”, • Weeds 15, pages 20-22, 1967): • If X=% damage by herbicide (A) at an application rate of m g/ha, • Y=% damage by herbicide (B) at an application rate of n g/ha, • E=the expected damage by herbicides (A) and (B) at application rates of m and n […] and, • then for a combination:
(§2) Individual compositions comprising pelargonic acid or flazasulfuron are compared with a herbicide composition according to the invention comprising pelargonic acid and flazasulfuron.
(§3) Herbicidal activity was determined by performing a post-emergence test. […] The corresponding mixture was in the form of a spray liquor. Besides, spray liquors of individual compositions comprising pelargonic acid or flazasulfuron were used.
(§4) Tests were performed on test fields (field trials) or in pots (pot trials).

[2] = test system: Festuca ovina; conditions: FT
Description: as §1, §2, §3, §4

[3] = test system: Anagallis arvensis; conditions: 3 d, FT; pelargonic acid 5440 g/ha, flazasulfuron 50 g/ha; 8 L/ha
Description: as §1, §2, §3, §4

[4] = test system: Plantago major; conditions: FT
Description: as §1, §2, §3, §4

[5] = 3 d, pelargonic acid 10880 g/ha, flazasulfuron 25 g/ha, 16 L/ha
[6] = 3 d, pelargonic acid 21760 g/ha, flazasulfuron 25 g/ha, 32 L/ha
[7] = 7 d, pelargonic acid 10880 g/ha, flazasulfuron 25 g/ha, 16 L/ha
[8] = 7 d, pelargonic acid 10880 g/ha, flazasulfuron 50 g/ha, 16 L/ha
[9] = 7 d, pelargonic acid 21760 g/ha, flazasulfuron 25 g/ha, 32 L/ha
[10] = 7 d, pelargonic acid 21760 g/ha, flazasulfuron 50 g/ha, 32 L/ha
[11] = 13 d, pelargonic acid 10880 g/ha, flazasulfuron 25 g/ha, 16 L/ha
[12] = 13 d, pelargonic acid 10880 g/ha, flazasulfuron 50 g/ha, 16 L/ha
[13] = 13 d, pelargonic acid 21760 g/ha, flazasulfuron 25 g/ha, 32 L/ha
[14] = 13 d, pelargonic acid 21760 g/ha, flazasulfuron 50 g/ha, 32 L/ha
[15] = 23 d, pelargonic acid 10880 g/ha, flazasulfuron 25 g/ha, 16 L/ha
[16] = 23 d, pelargonic acid 10880 g/ha, flazasulfuron 50 g/ha, 16 L/ha
[17] = 23 d, pelargonic acid 21760 g/ha, flazasulfuron 25 g/ha, 32 L/ha
[18] = 23 d, pelargonic acid 21760 g/ha, flazasulfuron 50 g/ha, 32 L/ha
[19] = 30 d, pelargonic acid 10880 g/ha, flazasulfuron 25 g/ha, 16 L/ha
[20] = 30 d, pelargonic acid 21760 g/ha, flazasulfuron 25 g/ha, 32 L/ha
[21] = 38 d, pelargonic acid 10880 g/ha, flazasulfuron 25 g/ha, 16 L/ha
[22] = 38 d, pelargonic acid 21760 g/ha, flazasulfuron 25 g/ha, 32 L/ha
[23] = 3 d, pelargonic acid 10880 g/ha, flazasulfuron 50 g/ha, 16 L/ha
[24] = 3 d, pelargonic acid 21760 g/ha, flazasulfuron 50 g/ha, 32 L/ha
[25] = 30 d, pelargonic acid 10880 g/ha, flazasulfuron 50 g/ha, 16 L/ha
[26] = 30 d, pelargonic acid 21760 g/ha, flazasulfuron 50 g/ha, 32 L/ha
[27] = 38 d, pelargonic acid 10880 g/ha, flazasulfuron 50 g/ha, 16 L/ha
[28] = 38 d, pelargonic acid 21760 g/ha, flazasulfuron 50 g/ha, 32 L/ha

Measured: herbicidal effect

COc1cc(OC)nc(NC(=O)NS(=O)(=O)c2ncccc2C(F)(F)F)n1 [Flazasulfuron, 1-(4,6-dimethoxypyrimidin-2-yl)-3-(3-trifluoromethyl-2-pyridylsulfonyl)urea]
80%: [2]; [21] | [2]; [22]
25%: [4]; [7] | [4]; [9]
30%: [2]; [7] | [2]; [9] | [2]; [11] | [2]; [13]
2.5%: [1]; 3 d
16.3%: [1]; 56 d
75%: [2]; [15] | [2]; [17] | [2]; [19] | [2]; [20]
10%: [4]; [23] | [4]; [24] | [4]; [11] | [4]; [13] | [4]; [17] | [4]; [21] | [4]; [27] | [4]; [22] | [4]; [28]
35%: [4]; [19] | [4]; [20]
0%: [2]; [5] | [2]; [6] | [2]; [16] | [2]; [18] | [4]; [5] | [4]; [8] | [4]; [10] | [4]; [18] | [4]; [25] | [4]; [26]
20%: [2]; [8] | [2]; [10] | [2]; [12] | [2]; [14] | [4]; [12] | [4]; [14]
1.3%: [3]
7.5%: [1]; 7 d

CCCCCCCCC(=O)O [Pelargonic acid, nonanoic acid]
15%: [4]; [17] | [4]; [18]
25%: [4]; [7] | [4]; [8]
8.8%: [1]; 3 d
30%: [2]; [9] | [2]; [10]
16.3%: [1]; 56 d
50%: [4]; [24]
40%: [4]; [9] | [4]; [10]
0%: [2]; [11] | [2]; [12] | [2]; [13] | [2]; [14] | [2]; [15] | [2]; [16] | [2]; [17] | [2]; [18] | [2]; [19] | [2]; [21] | [2]; [22] | [4]; [11] | [4]; [12] | [4]; [13] | [4]; [14] | [4]; [19] | [4]; [25] | [4]; [20] | [4]; [26] | [4]; [21] | [4]; [27] | [4]; [22] | [4]; [28]
13.8%: [3]
45%: [2]; [6]
20%: [1]; 7 d | [2]; [5] | [2]; [7] | [2]; [8] | [2]; [20] | [4]; [5] | [4]; [23]
